Experimental data taken from article PMC9681850, “Structural basis of synthetic agonist activation of the nuclear receptor REV-ERB” (Nature Communications, 2022).
Values joined by “and” are separate entries in the source; they are usually repeats but may differ in a detail not shown here. Equal values may be shown once.

Key:
HepG2 cells = test: cell viability by crystal violet staining; format: cell-based, human; conditions: for cell viability (Fig 2a source data): crystal violet, normalized to DMSO, single replicates
Description: (§1) Cellular viability was tested in two cell types, human hepatocarcinoma HepG2 cells and proliferating C2C12 mouse myoblast cells.
(§2) Data are presented as mean ± SEM. Source data are available as a Source Data file.
(§3) The human hepatocellular carcinoma cell line, HepG2 cells (ATCC HB-8065), were cultured in 10% FBS 1% L-Glu MEM at 37 °C in a humidified atmosphere of 5% CO2. Prior to RNA extraction cells were treated with either DMSO or REV-ERB agonist for 24 h. The C2C12 proliferating mouse myoblast cells (ATCC, CRL-1772) were cultured in 10% FBS DMEM at 37 °C in a humidified atmosphere of 5% CO2. Prior to RNA extraction cells were treated with either DMSO or REV-ERB agonist for 24 h. […]
(§4) […] Media was removed, and cells were incubated with 0.5% crystal violet solution for 20 min at room temperature with mild agitation. Cells were washed four times with tap water before being air drying overnight. Cells were incubated in methanol for 20 min with mild agitation. Absorbance was read at 570 nm, and readings were normalized to vehicle (DMSO) treated cells.

[1] = test system: proliferating C2C12 mouse myoblast cells; test: cell viability by crystal violet staining; format: cell-based; conditions: for cell viability (Fig. 2b source data): crystal violet, normalized to DMSO, single replicates; for reduction in cellular viability: proliferating C2C12 cells
Description: as §1, §2, §3, §4

BMAL1 in HepG2 cells = test: expression of BMAL1 by qPCR; format: cell-based, human; design: key: Bmal1 expression normalized to Ppia; conditions: 5 μM, 24 h, single replicates (n = 4)
Description: We next determined whether STL1267 can regulate characterized REV-ERB modulated genes in cell lines expressing REV-ERB naturally. Five micromolar doses of both drugs were used in cell-based experiments from this point on. REV-ERB is an established component of the core molecular clock repressing the expression of core clock gene Bmal1[6],[27] as well as others[28],[29]. […] In skeletal muscle, REV-ERB agonism increases the expression of a wide variety of genes important in mitochondrial function.
The human hepatocellular carcinoma cell line, HepG2 cells (ATCC HB-8065), were cultured in 10% FBS 1% L-Glu MEM at 37 °C in a humidified atmosphere of 5% CO2. Prior to RNA extraction cells were treated with either DMSO or REV-ERB agonist for 24 h. The C2C12 proliferating mouse myoblast cells (ATCC, CRL-1772) were cultured in 10% FBS DMEM at 37 °C in a humidified atmosphere of 5% CO2. Prior to RNA extraction cells were treated with either DMSO or REV-ERB agonist for 24 h. Prior to crystal violet cytotoxicity assay, cells were treated with either DMSO or REV-ERB agonist for 48 h.
Mouse tissue was homogenized using a bullet blender. DNA/protein was removed by phase separation using BCP/chloroform. The supernatant (RNA containing fraction) was collected, and RNA was precipitated using isopropanol. The RNA pellets were washed with 75% ethanol and resolubilized in RNAse free water. […]

REV-ERB regulated genes = test system: REV-ERB regulated genes; design: method as in ref 17 re-assessed; ref 48; conditions: RNA-seq data of ref 17 re-assessed; cited from earlier work
[2] = molecular target: NCoR1-VP16 fusion protein (a fragment of the NCoR1 corepressor); test: two-hybrid reporter assay (Gal4-FL REV-ERBα/NCoR1-VP16); conditions: HEK293 cells with Gal4UAS luciferase reporter; read at the highest dose shared with WT, log [STL1267] (µM) about 0.4; parent: est. 49; read off a plot

response (Normalized RLU) [2] | Compound | cell viability (Fig 2a source data) (HepG2 cells; HepG2, 1uM, listed as SR009) | cell viability (Fig 2a source data) (HepG2 cells; HepG2, 2uM, listed as SR909) | cell viability (Fig 2a source data) (HepG2 cells; HepG2, 5uM) | cell viability (Fig 2a source data) (HepG2 cells; HepG2, 10uM) | cell viability (Fig 2a source data) (HepG2 cells; HepG2, 20uM) | reduction in cell viability (HepG2 cells; HepG2 cells, 10 and 20 μM) | cell viability (Fig. 2b source data) ([1]; C2C12, 1 uM) | cell viability (Fig. 2b source data) ([1]; C2C12, 2 uM) | cell viability (Fig. 2b source data) ([1]; C2C12, 5 uM) | cell viability (Fig. 2b source data) ([1]; C2C12, 10 uM) | cell viability (Fig. 2b source data) ([1]; C2C12, 20 uM) | reduction in cellular viability ([1]; 10 μM) | reduction in cellular viability ([1]; 20 μM) | Bmal1 (Fig. 2c) expression (BMAL1 in HepG2 cells) | REV-ERB regulated genes still regulated in Rev-erbα/β DKO hepatocytes (REV-ERB regulated genes) [%]
 | CCOC(=O)N1CCC(CN(Cc2ccc(Cl)cc2)Cc2ccc([N+](=O)[O-])s2)C1 (centres unmarked) [SR9009, reference compound] | 97.2789 and 85.5104 and 113.189 and 114.805 and 107.077 and 107.33 and 98.8951 and 92.8847 | 100.006 and 84.3488 and 101.774 and 112.583 and 88.7935 and 85.3589 and 86.1671 and 96.3697 | 99.2992 and 90.5108 and 87.6823 and 102.582 and 76.621 and 82.8335 and 95.5616 and 87.3793 | 106.875 and 80.1566 and 109.199 and 93.9453 and 73.8936 and 70.661 and 84.7528 and 82.682 | 91.723 and 73.742 and 95.107 and 95.2585 and 84.7528 and 75.1058 and 92.3796 and 105.158 | ~ 10% | 96.141 and 87.1558 and 95.0006 and 119.571 and 103.64 | 73.3671 and 83.0434 and 96.4175 and 95.0006 and 98.2145 and 106.301 and 112.141 and 107.994 | 97.5233 and 96.3829 and 104.02 and 104.331 and 114.111 and 109.239 and 109.791 and 104.884 | 81.4883 and 68.2525 and 56.4681 and 49.4183 and 62.032 and 78.1707 and 78.3435 and 86.2228 | 29.4436 and 32.6575 and 37.392 and 34.0399 and 33.6597 and 55.6387 and 64.9695 and 68.7363 | ~ 25% | ~ 50% | 0.6576 and 0.6833 and 0.6229 and 0.6990 | 39
7 | full length human REV-ERBα fused to the GAL4 DNA-binding domain (wild type) (from UniProt P20393) F443A |  |  |  |  |  |  |  |  |  |  |  |  |  |  | 
73 | full length human REV-ERBα fused to the GAL4 DNA-binding domain (wild type) (from UniProt P20393) F488A |  |  |  |  |  |  |  |  |  |  |  |  |  |  | 
